According to US20070213291A1, “Therapeutically useful synthetic oligonucleotides” (priority 1999, published 2007):

Columns and labels:
Format in all cases: cell-based
[1] = test system: Jurkat human leukemia T cells; assay: Cell cycle stage in Jurkat cells (propidium iodide flow cytometry); details: 24 h
Method: Cell cycle stage was determined using a […]™ PLUS DNA commercial kit (Becton Dickinson). Briefly, nuclei from cells were obtained by dissolving the cell membrane in a nonionic detergent, eliminating the cell cytoskeleton and nuclear proteins with trypsin, digesting the cellular RNA with RNase and stabilizing the nuclear chromatin with spermine. Propidium iodide was added to the cell nuclei and their fluorescence was analyzed in a flow cytometer equipped with electronic doublet discrimination capability (FACSCalibur, Becton Dickinson, San Jose, Calif.). Accumulation of cells in G0/G1, early S (SE), mid S (SM), late S (SL) or G2/M phases of the cell cycle was analyzed using MODFIT LT software (Verity Software House Inc., Topsham, Mass.).
Exponentially growing Jurkat human leukemia T cells (Table 28) and MCF-7 human breast cancer cells (5×10^5 cells/ml) (Table 29) were incubated for 24 h with 2, 6, 15, 18, 27 and 45 base sequences containing A, C, G and T. The cells were collected and centrifuged and cell cycle stage was determined.
Jurkat human cell leukemia T cells (1×10^6 cells/ml) were incubated for 24 h with 6 base GT SEQ ID NO:25, conplementary 6 base AC SEQ ID NO:79 and 6 base GT SEQ ID NO:25+6 base AC SEQ ID NO:79. GT SEQ ID NO:25 and AC SEQ ID NO:79 were hybridized by mixing the oligonucleotides (1:1) and heating for 10 minutes at 65° C. As controls, GT SEQ ID NO:25 and AC SEQ ID NO:79 were heated for 10 minutes at 65° C. (Table 30).

[2] = test system: Jurkat human leukemia T cells; assay: NuMA release into supernatant (ELISA); details: for % NUMA RELEASED: Jurkat 1×10^6/ml
Method: The redistribution of phosphatidylserine in the plasma membrane during apoptosis was measured by flow cytometry using FITC-conjugated annexin V (BD Pharmingen, San Diego, Calif.). NuMA release into the supernatant was determined using a commercial ELISA kit (Oncogen/Calbiochem, Cambridge, Mass.).
Jurkat human leukemia T cells were incubated with 50 μM of 3, 4, 5, 6 and 7 GT base sequences, a 5 base ACGT sequence, 6 base AG, GG, AGT and CGT sequences and a 7 base GG sequence.
Jurkat human leukemia T cells (1×10^6/ml) were incubated with 6 and 27 GT base sequences (Table 32). NuMA was determined as in Example 23.
Jurkat human cell leukemia T cells were incubated for 24 h with 6 base GT SEQ ID NO:25, complementary 6 base AC SEQ ID NO:79, and 6 base GT SEQ ID NO:25+6 base AC SEQ ID NO:79. GT SEQ ID NO:25 and AC SEQ ID NO:79 were hybridized by mixing the sequences (1:1) and heating for 10 minutes at 65° C. As controls, GT SEQ ID NO:25 and AC SEQ ID NO:79 were heated for 10 minutes at 65° C. (Table 33). Apoptosis was evaluated as in Example 23.

rhesus monkey PBMCs = assay: Cytokine production by rhesus monkey PBMC (ELISA); details: PBMC of 4 healthy rhesus monkeys, 100 μg/ml, 48 h
Method: (§1) Unless stated otherwise, 1×10^6 cells were incubated with 100 μg/ml of each of the sequences tested for 48 h at 37° C. in 5% CO2. Production of cytokines IL-6, IL-10, IL-12, IL-1beta and TNF-alpha was determined in pg/ml in 100 μl of culture supernatant using the appropriate commercial ELISA (BioSource, Camarillo Calif.). The IL-12 ELISA measures both IL-12 p70 complex and free p40 subunit. Results are expressed as the “fold” (×) increase in cytokine production by treated cells compared to control cells.
PBMCs were isolated from 4 healthy rhesus monkeys as in Example 35. PBMCs were incubated with 6 base GT, AGT, CGT, AG, CG ands GG sequences and production of the cytokines IL-6, IL-12 and TNF-alpha was determined (Table 42).

[3] = test system: Jurkat human leukemia T cells; assay: Inhibition of Jurkat human leukemia T cell proliferation (MTT reduction); details: 100 μg/ml sequence, 48 h, 2.5×10^5 cells/ml
Method: (§2) Cells were seeded in 6 (1 ml/well), 24 (0.5 ml/well) or 96 (0.1 ml/well) well flat-bottom microplates and were maintained at 37° C. in a 5% CO2 atmosphere. Unless stated otherwise, 2.5×10^5 cells/ml were incubated with 0 μg/ml (control) and 100 μg/ml (treated) of 2 to 45 base sequences containing A, C, G and T for 48 h.
MTT was measured at a wavelength of 570 nm using a multiplate spectrophotometer reader (ELX800, Bio-TEK Instruments Inc., Winooski, Vt.).
Jurkat human leukemia T cells are an atypical multi-drug resistant human suspension tumor cell model.

chimpanzee PBMCs = assay: Cytokine production by chimpanzee PBMC (ELISA); details: PBMC of 4 healthy chimpanzees, 100 μg/ml, 48 h
Method: as §1
PBMCs were isolated from 4 healthy chimpanzees as in Example 35. Chimpanzee PBMCs were incubated with 6 base GT, AGT, CGT, AG, CG and GG sequences and production of the cytokines IL-10, IL-12 and TNF-alpha was determined (Table 41).

[4] = test system: THP-1 human acute monocytic leukemia cells; assay: Cytokine production by THP-1 cells (ELISA); details: THP-1, 1×10^6 cells, 100 μg/ml, 48 h; for ↑ IL-12 (fold increase treated vs control cells): p70 complex and free p40
Method: as §1
THP-1 human acute monocytic leukemia cells were incubated with 2, 3, 6, 9, 12, 14, 15 and 18 base GT sequences and production of the cyotkine IL-6 was determined (Table 35).
THP-1 human acute monocytic leukemia cells were incubated with 6 base GT, AG, CG, GG, AGT and CGT sequences and production of the cytokines IL-12 and IL-6 was determined (Table 36).
THP-1 human acute monocytic leukemia cells were incubated with 6 base GT sequences, having either an oxygen (phosphodiester) or a sulfur (phosphorothioate) as the nonbridging atom on the phosphate groups and production of the cytokine IL-12 was determined (Table 39).
THP-1 human acute monocytic leukemia cells were incubated with 6 base GT SEQ ID NO:25, having either an oxygen (phosphodiester) or a sulfur (phosphorothioate) as the nonbridging atom on the phosphate groups and production of the cytokine IL-12 was determined (Table 40).

[5] = test system: human peripheral blood mononuclear cells; assay: Cytokine production by human PBMC (ELISA); details: PBMC of 7 healthy humans, 100 μg/ml, 48 h
Method: as §1
Peripheral blood mononuclear cells (hereinafter, “PBMCs”) were isolated from 7 healthy humans by Ficoll-Hypaque (Amersham Pharmacia Biotech, Baie d'Urfée, Québec, Canada) by density gradient centrifugation of whole blood. PBMCs were incubated with 6 base GT, AGT, CGT, AG, CG and GG sequences and production of the cytokines IL-1beta, IL-6, IL-10 and IL-12 were determined.

[6] = test system: MCF-7 human breast cancer cells; assay: Inhibition of MCF-7 cell proliferation (MTT); details: 100 μg/ml, 48 h, 5×10^5 cells/ml
Method: as §2
Cell proliferation was measured using dimethylthiazol-diphenyl-tetrazolium (MTT) reduction (Mosman et al. J. Immunol. Methods 65:55, 1983). MTT was measured at a wavelength of 570 nm using a multiplate spectrophotometer reader (ELX800, Bio-TEK Instruments Inc., Winooski, Vt.).
MCF-7 human breast cancer cells are a caspase 3 negative, estrogen-dependent human solid tumor model. MCF-7 cells (5×10^5 cells/ml) were incubated with 3 and 6 base GT sequences (Table 7).

[7] = Jurkat 1×10^6 cells/ml, sequences heated 10 minutes at 65° C.

Substance	% of cells in phase: G0/G1 ([1]; Jurkat, 100 μg/ml)	% of cells in phase: G2/M ([1]; Jurkat, 100 μg/ml)	% of cells in phase: SE ([1]; Jurkat, 100 μg/ml)	% of cells in phase: SL ([1]; Jurkat, 100 μg/ml)	% of cells in phase: SM ([1]; Jurkat, 100 μg/ml)	Arrest (cell cycle) ([1]; Jurkat, 100 μg/ml)	% INHIBITION of Jurkat human leukemia T cell proliferation [3]	↑ IL-12 (fold increase treated vs control cells) [4]	% INHIBITION of MCF-7 human breast cancer cell proliferation [6]	also measured
CC(AC)1CC (DNA CCACCC; unmodified DNA) [SEQ ID NO:79]	–	–	–	–	–	–	–	–	–	% cells in phase: G0/G1 [1, 7]: 36.0%; % cells in phase: G2/M [1, 7]: 30.5%; % cells in phase: SE [1, 7]: 10.4%; % cells in phase: SL [1, 7]: 9.7%; % cells in phase: SM [1, 7]: 13.4%; Arrest (cell cycle) [1, 7]: had no effect on the cell cycle and None; % NuMA released (untreated vs treated cells) ([2]; Jurkat, 24 h, sequences heated 10 minutes at 65° C.): 9%
GGAAGG (unmodified DNA) [SEQ ID NO:42]	48.0%	34.1%	19.8%	5.8%	8.5%	End	22%	4.1x	–	IL-10 fold increase: mean +/− SD (rhesus monkey PBMCs): 1.2 +/− 0.2 fold increase; IL-12 fold increase: mean +/− SD (rhesus monkey PBMCs): 11.9 +/− 5.4 fold increase; TNF-alpha fold increase: mean +/− SD (rhesus monkey PBMCs): 16.5 +/− 4.5 fold increase; IL-10 fold increase: mean +/− SD (chimpanzee PBMCs): 9.9 +/− 8.9 fold increase; IL-12 fold increase: mean +/− SD (chimpanzee PBMCs): 15.6 +/− 10.6 fold increase; TNF-alpha fold increase: mean +/− SD (chimpanzee PBMCs): 14.4 +/− 7.1 fold increase; ↑ IL-6 (fold increase treated vs control cells) [4]: 29.2x; IL-1 beta fold increase: mean +/− SD [5]: 3.5 +/− 3.9 fold increase; IL-6 fold increase: mean +/− SD [5]: 11.8 +/− 5.8 fold increase; IL-10 fold increase: mean +/− SD [5]: 1.1 +/− 0.2 fold increase; IL-12 fold increase: mean +/− SD [5]: 3.0 +/− 2.7 fold increase
GGCCGG [SEQ ID NO:43]	26.5%	18.7%	21.3%	10.7%	22.8%	End SM	29%	3.1x	–	IL-10 fold increase: mean +/− SD (rhesus monkey PBMCs): 1.0 +/− 0.2 fold increase; IL-12 fold increase: mean +/− SD (rhesus monkey PBMCs): 11.7 +/− 4.8 fold increase; TNF-alpha fold increase: mean +/− SD (rhesus monkey PBMCs): 16.9 +/− 3.5 fold increase; IL-10 fold increase: mean +/− SD (chimpanzee PBMCs): 13.6 +/− 9.0 fold increase; IL-12 fold increase: mean +/− SD (chimpanzee PBMCs): 15.1 +/− 10.2 fold increase; TNF-alpha fold increase: mean +/− SD (chimpanzee PBMCs): 14.0 +/− 6.6 fold increase; ↑ IL-6 (fold increase treated vs control cells) [4]: 17.1x; IL-1 beta fold increase: mean +/− SD [5]: 1.5 +/− 0.9 fold increase; IL-6 fold increase: mean +/− SD [5]: 14.9 +/− 10.2 fold increase; IL-10 fold increase: mean +/− SD [5]: 1.2 +/− 0.3 fold increase; IL-12 fold increase: mean +/− SD [5]: 2.5 +/− 2.0 fold increase
GGGGGGGTGGGGGGGTGGGGGGGTGGG (unmodified DNA) [SEQ ID NO:4]	36.5%	22.3%	16.3%	11.1%	13.8%	None	11%	–	–	% NUMA RELEASED [2]: 90%
GGGGGTGGGGGTGGGGGTGGGGGTGGG (unmodified DNA) [SEQ ID NO:3]	40.5%	23.6%	13.3%	9.7%	12.9%	None	24%	–	–	% NUMA RELEASED [2]: 139%
GoGoGoTsGoGo	–	–	–	–	–	–	12%	0.2x	0%	–
GoGoGsToGoGo	–	–	–	–	–	–	17%	0.1 x	12%	–
GoGoGsTsGoGo	–	–	–	–	–	–	13%	0.5x	43%	–
GoGsGoToGsGo	–	–	–	–	–	–	11%	−0.1x	13%	–
GsGoGoToGoGs	–	–	–	–	–	–	16%	−0.1x	12%	–
GsGsGoToGsGs	–	–	–	–	–	–	−13%	0 x	−3%	–
